From patent US5543410A, “Pharmacological use of phthaloylhydrazide derivatives; combination and application thereof” (L.I.M.A.D. Limited, priority 1993, dated 1996) come the findings set out here.

SMILES strings stand for the structures.

In this experiment the test system is toxins.

In the case of `Nc1cccc2c(=O)[nH][nH]c(=O)c12`, the “time to therapeutic effect” value (after administration, acute phase) is given as “twenty to thirty”. Also, where the note is “within a one-day period”, the “injections sufficient for complete elimination of pathological indications” value is given as “one or two”.
